The structures appear in SMILES notation. In brackets after ≈: the same amount, converted by molar mass. Where two headings read alike, the source gives them in different places. Where only a bound is given, the exact number is not on record here.

Format in all cases: cell-based
One test deals with E. coli ΔtolC. Nature of the test: microbe, parasite or virus in culture. The note with it: Escherichia coli, 16 h. The protocol:
(§1) Cystobactamid derivatives synthesized were tested against relevant Gram negative and positive bacteria of clinical interest. Experimental procedures used for the biological characterization of the compounds are the same as previously described in WO 2016/082934.
(§2) Bacterial strains used in susceptibility assays (minimum inhibitory concentration, MIC) were either part of our internal strain collection or purchased from the German Collection of Microorganisms and Cell Cultures (Deutsche Sammlung von Mikroorganismen und Zellkulturen, DSMZ) and the American Type Culture Collection (ATCC). The susceptible E. coli strain (WT) and fluoroquinolone-resistant mutants E. coli WT-3 and WT-III were kindly provided by Prof Dr. P. Heisig, Pharmaceutical Biology and Microbiology, University of Hamburg, Germany. The efflux-deficient strain P. aeruginosa ΔmexAB was kindly provided by Prof Dr. S. Häußler, Institute for Molecular Bacteriology, TWINCORE, Hannover, Germany. All compounds were prepared as DMSO stocks and MIC values were determined in standard microbroth dilution assays in 96-well MTPs as described in Baumann et al., Angew Chem Int Ed Engl. 2014; 53(52):14605-9. In brief, overnight cultures of bacteria were diluted in either tryptic soy broth (TSB: 1.7% peptone casein, 0.3% peptone soymeal, 0.25% glucose, 0.5% NaCl, 0.25% K2HPO4; pH 7.3; S. pneumoniae and E. faecalis) or cation-adjusted Müller-Hinton Broth (BBL™, BD; all other bacteria) and adjusted to 10^4-10^6 cfu/mL. Bacteria were grown in the presence of the derivatives in serial dilution for approx. 16 h at 30-37° C. MIC values were determined and were defined as the antibiotic concentration at which no visual growth of bacteria was observed.

The test system of a further test is P. aeruginosa ΔmexAB. Nature of the test: microbe, parasite or virus in culture. The note with it: Pseudomonas aeruginosa, 16 h. The protocol:
as §1, §2

The subject of a further test is E. coli WT DSM-1116. Kind of test: MIC, microbroth dilution susceptibility assay. The note with it: Escherichia coli, read-out: MIC E. coli WT DSM-1116. The protocol: as §1, §2
A further test deals with P. aeruginosa WT PA14. Kind of test: MIC, microbroth dilution susceptibility assay. The note with it: Pseudomonas aeruginosa. The protocol:
as §1, §2

The subject of another test is S. aureus Newman. Kind of test: MIC, microbroth dilution susceptibility assay. The note with it: Staphylococcus aureus, NEWMAN, read-out: MIC S. aureus Newman. As to the method:
as §1, §2

The mark [1] stands for this setting: read-out: MIC E. coli ΔtolC, small panel, Tables 1a/1b, no visual growth after approx. 16 h.
[2] abbreviates: read-out: MIC P. aeruginosa ΔmexAB, efflux-deficient strain, small panel, Tables 1a/1b.
[3] abbreviates: DSM1116, small panel, Tables 1a/1b, no visual growth after approx. 16 h.
The mark [4] stands for this setting: PA14, small panel, Tables 1a/1b, read-out: MIC P. aeruginosa WT PA14.

Turning to `CC(=O)Nc1ccc(C(=O)Nc2ccc(C(=O)N[C@@H](CC(N)=O)C(=O)Nc3ccc(C(=O)Nc4ccc(C(=O)Nc5ccc(C(=O)O)cc5)c(O)c4OC(C)C)cc3)cc2)cc1` [Compound 36, (S)-4-(4-(4-(2-(4-(4-acetamidobenzamido)benzamido)-4-amino-4-oxobutanamido)benzamido)-2-hydroxy-3-isopropoxybenzamido)benzoic acid], the MIC with E. coli ΔtolC (setting [1]) was 0.06 µg/mL (≈ 0.0711 µM); in the test with P. aeruginosa ΔmexAB (setting [2]), more than 64 µg/mL; in the test with E. coli WT DSM-1116 (setting [3]) it was 16 µg/mL (≈ 19 µM); in the test with P. aeruginosa WT PA14 (setting [4]), more than 64 µg/mL; in the test on S. aureus Newman (small panel, Tables 1a/1b), 64 µg/mL (≈ 75.8 µM).
Consider `CC(C)Oc1c(NC(=O)c2ccc(NC(=O)[C@H](CC(N)=O)NC(=O)c3ccc(NC(=O)c4ccccc4)cc3)cc2)ccc(C(=O)Nc2ccc(C(=O)O)cc2)c1O` [Compound 38, (S)-4-(4-(4-(4-amino-2-(4-benzamidobenzamido)-4-oxobutanamido)benzamido)-2-hydroxy-3-isopropoxybenzamido)benzoic acid], for which the MIC is 0.5 µg/mL (≈ 0.635 µM) in the test with E. coli ΔtolC (read-out: MIC E. coli ΔtolC); 2 µg/mL (≈ 2.54 µM) with P. aeruginosa ΔmexAB (read-out: MIC P. aeruginosa ΔmexAB); more than 64 µg/mL in the test on E. coli WT DSM-1116 (DSM1116, 16 h); more than 64 µg/mL with P. aeruginosa WT PA14 (PA14, read-out: MIC P. aeruginosa WT PA14); more than 64 µg/mL with S. aureus Newman.
`CC(C)Oc1c(NC(=O)c2ccc(NC(=O)[C@H](CC(N)=O)NC(=O)c3ccc(NC(=O)c4ccc(F)cc4)cc3)cc2)ccc(C(=O)Nc2ccc(C(=O)O)cc2)c1O` [Compound 39, (S)-4-(4-(4-(4-amino-2-(4-(4-fluorobenzamido)benzamido)-4-oxobutanamido)benzamido)-2-hydroxy-3-isopropoxybenzamido)benzoic acid]: the MIC with E. coli ΔtolC (setting [1]) is 0.5 µg/mL (≈ 0.621 µM); in the test on P. aeruginosa ΔmexAB (setting [2]), 2 µg/mL (≈ 2.49 µM); in the test with E. coli WT DSM-1116 (setting [3]), 0.5 µg/mL (≈ 0.621 µM); in the test on P. aeruginosa WT PA14 (setting [4]), more than 64 µg/mL; with S. aureus Newman (small panel, Tables 1a/1b), 2 µg/mL (≈ 2.49 µM).
`CC(C)Oc1c(NC(=O)c2ccc(NC(=O)[C@H](CC(N)=O)NC(=O)c3ccc(NC(=O)c4ccc(N)cc4)cc3)cc2)ccc(C(=O)Nc2ccc(C(=O)O)cc2)c1O` [Compound 40, (S)-4-(4-(4-(4-amino-2-(4-(4-aminobenzamido)benzamido)-4-oxobutanamido)benzamido)-2-hydroxy-3-isopropoxybenzamido)benzoic acid]: the MIC with E. coli ΔtolC (setting [1]) was 32 µg/mL (≈ 39.9 µM); in the test with P. aeruginosa ΔmexAB (setting [2]), 4 µg/mL (≈ 4.99 µM); in the test on E. coli WT DSM-1116 (setting [3]), 2 µg/mL (≈ 2.49 µM); in the test on P. aeruginosa WT PA14 (setting [4]) it was more than 64 µg/mL; with S. aureus Newman (small panel, Tables 1a/1b) it was more than 64 µg/mL.
As for `CC(C)Oc1c(NC(=O)c2ccc(NC(=O)[C@H](CC(N)=O)NC(=O)c3ccc(NC(=O)c4cccc([N+](=O)[O-])c4)cc3)cc2)ccc(C(=O)Nc2ccc(C(=O)O)cc2)c1O` [Compound 41, (S)-4-(4-(4-(4-amino-2-(4-(3-nitrobenzamido)benzamido)-4-oxobutanamido)benzamido)-2-hydroxy-3-isopropoxybenzamido)benzoic acid], the MIC in the test with E. coli ΔtolC (setting [1]) is 0.25 µg/mL (≈ 0.301 µM); in the test on P. aeruginosa ΔmexAB (setting [2]) it was 0.5 µg/mL (≈ 0.601 µM); in the test on E. coli WT DSM-1116 (setting [3]) it was more than 64 µg/mL; in the test on P. aeruginosa WT PA14 (setting [4]) it was more than 64 µg/mL; with S. aureus Newman (small panel, Tables 1a/1b), more than 64 µg/mL.
Take `CC(C)Oc1c(NC(=O)c2ccc(NC(=O)[C@H](CC(N)=O)NC(=O)c3ccc(NC(=O)c4cccc(N)c4)cc3)cc2)ccc(C(=O)Nc2ccc(C(=O)O)cc2)c1O` [Compound 42, (S)-4-(4-(4-(4-amino-2-(4-(3-aminobenzamido)benzamido)-4-oxobutanamido)benzamido)-2-hydroxy-3-isopropoxybenzamido)benzoic acid]: the MIC is 2 µg/mL (≈ 2.49 µM) in the test on E. coli ΔtolC (setting [1]); 4 µg/mL (≈ 4.99 µM) in the test with P. aeruginosa ΔmexAB (setting [2]); 32 µg/mL (≈ 39.9 µM) in the test on E. coli WT DSM-1116 (setting [3]); more than 64 µg/mL with P. aeruginosa WT PA14 (setting [4]); more than 64 µg/mL in the test on S. aureus Newman (small panel, Tables 1a/1b).
Turning to `CC(C)Oc1c(NC(=O)c2ccc(NC(=O)[C@H](CC(N)=O)NC(=O)c3ccc(NC(=O)c4ccccc4[N+](=O)[O-])cc3)cc2)ccc(C(=O)Nc2ccc(C(=O)O)cc2)c1O` [Compound 43, (S)-4-(4-(4-(4-amino-2-(4-(2-nitrobenzamido)benzamido)-4-oxobutanamido)benzamido)-2-hydroxy-3-isopropoxybenzamido)benzoic acid], the MIC was 2 µg/mL (≈ 2.4 µM) in the test with E. coli ΔtolC (setting [1]); more than 64 µg/mL in the test with P. aeruginosa ΔmexAB (setting [2]); more than 64 µg/mL in the test with E. coli WT DSM-1116 (setting [3]); more than 64 µg/mL in the test with P. aeruginosa WT PA14 (setting [4]); more than 64 µg/mL in the test on S. aureus Newman (small panel, Tables 1a/1b).
As for `CC(C)Oc1c(NC(=O)c2ccc(NC(=O)[C@H](CC(N)=O)NC(=O)c3ccc(NC(=O)c4ccc(C(F)(F)F)cc4)cc3)cc2)ccc(C(=O)Nc2ccc(C(=O)O)cc2)c1O` [Compound 45, (S)-4-(4-(4-(4-amino-4-oxo-2-(4-(4-(trifluoromethyl)benzamido)benzamido)butanamido)benzamido)-2-hydroxy-3-isopropoxybenzamido)benzoic acid], the MIC in the test with E. coli ΔtolC (setting [1]) is not above 0.03 µg/mL; in the test on P. aeruginosa ΔmexAB (setting [2]) it was more than 64 µg/mL; in the test with E. coli WT DSM-1116 (setting [3]), 0.5 µg/mL (≈ 0.585 µM); in the test on P. aeruginosa WT PA14 (setting [4]), more than 64 µg/mL; in the test with S. aureus Newman (small panel, Tables 1a/1b), 16 to 32 µg/mL (≈ 18.7 to 37.4 µM).
For `CC(C)Oc1c(NC(=O)c2ccc(NC(=O)[C@H](CC(N)=O)NC(=O)c3ccc(NC(=O)c4ccc(NC(N)=O)cc4)cc3)cc2)ccc(C(=O)Nc2ccc(C(=O)O)cc2)c1O` [Compound 46, (S)-4-(4-(4-(4-amino-4-oxo-2-(4-(4-ureidobenzamido)benzamido)butanamido)benzamido)-2-hydroxy-3-isopropoxybenzamido)benzoic acid], the MIC is 0.03 µg/mL (≈ 0.0355 µM) in the test with E. coli ΔtolC (setting [1]); 4 µg/mL (≈ 4.73 µM) in the test with P. aeruginosa ΔmexAB (setting [2]); 0.5 µg/mL (≈ 0.592 µM) in the test with E. coli WT DSM-1116 (setting [3]); more than 64 µg/mL with P. aeruginosa WT PA14 (setting [4]); 64 µg/mL (≈ 75.8 µM) in the test with S. aureus Newman (small panel, Tables 1a/1b).
On to `CC(C)Oc1c(NC(=O)c2ccc(NC(=O)[C@H](CC(N)=O)NC(=O)c3ccc(NC(=O)c4ccc(NC(=O)c5ccc([N+](=O)[O-])cc5)cc4)cc3)cc2)ccc(C(=O)Nc2ccc(C(=O)O)cc2)c1O` [Compound 47, (S)-4-(4-(4-(4-amino-2-(4-(4-(4-nitrobenzamido)benzamido)benzamido)-4-oxobutanamido)benzamido)-2-hydroxy-3-isopropoxybenzamido)benzoic acid], for which the MIC with E. coli ΔtolC (setting [1]) is more than 64 µg/mL; with P. aeruginosa ΔmexAB (setting [2]), more than 64 µg/mL; in the test on E. coli WT DSM-1116 (setting [3]), 2 µg/mL (≈ 2.1 µM); with P. aeruginosa WT PA14 (setting [4]), more than 64 µg/mL; in the test with S. aureus Newman (small panel, Tables 1a/1b), more than 64 µg/mL.
Regarding `CC(C)Oc1c(NC(=O)c2ccc(NC(=O)[C@H](CC(N)=O)NC(=O)c3ccc(NC(=O)c4ccc([N+](=O)[O-])c(OC(C)C)c4O)cc3)cc2)ccc(C(=O)Nc2ccc(C(=O)O)cc2)c1O` [Compound 48, (S)-4-(4-(4-(4-amino-2-(4-(2-hydroxy-3-isopropoxy-4-nitrobenzamido)benzamido)-4-oxobutanamido)benzamido)-2-hydroxy-3-isopropoxybenzamido)benzoic acid], the MIC with E. coli ΔtolC (setting [1]) is more than 64 µg/mL; with P. aeruginosa ΔmexAB (setting [2]) it was more than 64 µg/mL; with E. coli WT DSM-1116 (setting [3]), more than 64 µg/mL; in the test on P. aeruginosa WT PA14 (setting [4]), more than 64 µg/mL; in the test with S. aureus Newman (small panel, Tables 1a/1b) it was more than 64 µg/mL.
Take `Cc1cc(C#N)ccc1C(=O)Nc1ccc(C(=O)N[C@@H](CC(N)=O)C(=O)Nc2ccc(C(=O)Nc3ccc(C(=O)Nc4ccc(C(=O)O)cc4)c(O)c3OC(C)C)cc2)cc1` [Compound 50, (S)-4-(4-(4-(4-amino-2-(4-(4-cyano-2-methylbenzamido)benzamido)-4-oxobutanamido)benzamido)-2-hydroxy-3-isopropoxybenzamido)benzoic acid]: the MIC in the test with E. coli ΔtolC (setting [1]) was 0.03 µg/mL (≈ 0.0363 µM); with P. aeruginosa ΔmexAB (setting [2]) it was 2 µg/mL (≈ 2.42 µM); with E. coli WT DSM-1116 (setting [3]), 0.5 µg/mL (≈ 0.605 µM); with P. aeruginosa WT PA14 (setting [4]) it was more than 64 µg/mL; in the test on S. aureus Newman (small panel, Tables 1a/1b), 64 µg/mL (≈ 77.5 µM).
With `CC(C)Oc1c(NC(=O)c2ccc(NC(=O)[C@H](CC(N)=O)NC(=O)c3ccc(NC(=O)c4ccc(C#N)c(F)c4)cc3)cc2)ccc(C(=O)Nc2ccc(C(=O)O)cc2)c1O` [Compound 51, (S)-4-(4-(4-(4-amino-2-(4-(4-cyano-3-fluorobenzamido)benzamido)-4-oxobutanamido)benzamido)-2-hydroxy-3-isopropoxybenzamido)benzoic acid], the MIC in the test with E. coli ΔtolC (setting [1]) is not above 0.03 µg/mL; in the test with P. aeruginosa ΔmexAB (setting [2]), 0.5 µg/mL (≈ 0.603 µM); in the test with E. coli WT DSM-1116 (setting [3]), 0.25 µg/mL (≈ 0.301 µM); with P. aeruginosa WT PA14 (setting [4]), 8 µg/mL (≈ 9.64 µM); in the test on S. aureus Newman (small panel, Tables 1a/1b), 2 µg/mL (≈ 2.41 µM).
`Cc1cc(C(=O)Nc2ccc(C(=O)N[C@@H](CC(N)=O)C(=O)Nc3ccc(C(=O)Nc4ccc(C(=O)Nc5ccc(C(=O)O)cc5)c(O)c4OC(C)C)cc3)cc2)ccc1C#N` [Compound 52, (S)-4-(4-(4-(4-amino-2-(4-(4-cyano-3-methylbenzamido)benzamido)-4-oxobutanamido)benzamido)-2-hydroxy-3-isopropoxybenzamido)benzoic acid]: the MIC in the test on E. coli ΔtolC (setting [1]) stood at 0.03 µg/mL (≈ 0.0363 µM); in the test with P. aeruginosa ΔmexAB (setting [2]), 0.5 µg/mL (≈ 0.605 µM); in the test on E. coli WT DSM-1116 (setting [3]) it was 0.5 µg/mL (≈ 0.605 µM); with P. aeruginosa WT PA14 (setting [4]), 4 µg/mL (≈ 4.84 µM); with S. aureus Newman (small panel, Tables 1a/1b), 2 µg/mL (≈ 2.42 µM).

The values are drawn from patent US11034648B2, “Cystobactamide derivatives” (priority 2017, dated 2021).
